Measured values: patent US20230116196A1, “METHOD OF TREATING CNS DISORDERS WITH NEU[…] GABAERGIC COMPOUNDS” (priority 2017, published 2023)
Read-outs that look alike come from different tables or passages of the source.

How the values were obtained:
[1] = tested on: GABA receptor trafficking; assay: GABA receptor trafficking measured by GABAergic current density; assay type: cell-based
Description: As shown in above examples, not all neurosteroids can modulate GABA receptor trafficking.

[2] = tested on: dentate gyrus granule cells (DGGCs); assay: Acute NAS exposure: tonic current in DGGCs of hippocampal slices; assay type: cell-based, mouse; conditions: 100 nM, 10 min acute exposure; mean±SEM
Method: Brain slices were prepared from 3- to 5-week-old male C57 mice. Mice were anesthetized with isoflurane, decapitated, and brains were rapidly removed and submerged in ice-cold cutting solution containing (mM): 126 NaCl, 2.5 KCl, 0.5 CaCl2, 2 MgCl2, 26 NaHCO3, 1.25 NaH2PO4, 10 glucose, 1.5 sodium pyruvate, and 3 kynurenic acid. Coronal 310 μm thick slices were cut with the vibratome VT1000S (Leica Microsystems, St Louis, Mo., USA). The slices were then transferred into incubation chamber filled with prewarmed (31-32° C.) oxygenated artificial cerebro-spinal fluid (ACSF) of the following composition (in mM): 126 NaCl, 2.5 KCl, 2 CaCl2, 2 MgCl2, 26 NaHCO3, 1.25 NaH2PO4, 10 glucose, 1.5 sodium pyruvate, 1 glutamine, 3 kynurenic acid and 0.005 GABA bubbled with 95% O2-5% CO2. Slices were allowed to recover at 32° C. for at least 1 hr before recording. Exogenous GABA was added in an attempt to standardize ambient GABA in the slice and provide an agonist source for newly inserted extrasynaptic GABAARs. […]
Whole-cell currents were recorded from the dentate gyrus granule cells (DGGCs) in 310-μm-thick coronal hippocampal slices. […] A 5 min period for stabilization after obtaining the whole-cell recording conformation (holding potential of −60 mV) was allowed before currents were recorded using an Axopatch 200B amplifier (Molecular Devices), low-pass filtered at 2 kHz, digitized at 20 kHz (Digidata 1440A; Molecular Devices), and stored for offline analysis.
For tonic current measurements, an all-points histogram was plotted for a 10 s period before and during 100 μM picrotoxin application, once the response reached a plateau level. […] Series resistance and whole-cell capacitance were continually monitored and compensated throughout the course of the experiment. […] Spontaneous inhibitory post-synaptic currents (sIPSCs) were analyzed using the mini-analysis software (version 5.6.4; Synaptosoft, Decatur, Ga.). […] Only recordings with a minimum of 200 events fitting these criteria were analyzed. sIPSCs amplitude, and frequency from each experimental condition was pooled and expressed as mean±SEM. […]

[3] = target: T1, α1β2γ2 GABAA receptors (Homo sapiens, UniProt P14867+P18507+P47870); assay: Whole-cell patch clamp: potentiation of GABA EC20 currents at recombinant α1β2γ2 GABAA receptors; assay type: cell-based
T1 construct: expressed in transfected cells; host or cells: LTK cells, stably transfected
T1 sequence (P14867 28-456): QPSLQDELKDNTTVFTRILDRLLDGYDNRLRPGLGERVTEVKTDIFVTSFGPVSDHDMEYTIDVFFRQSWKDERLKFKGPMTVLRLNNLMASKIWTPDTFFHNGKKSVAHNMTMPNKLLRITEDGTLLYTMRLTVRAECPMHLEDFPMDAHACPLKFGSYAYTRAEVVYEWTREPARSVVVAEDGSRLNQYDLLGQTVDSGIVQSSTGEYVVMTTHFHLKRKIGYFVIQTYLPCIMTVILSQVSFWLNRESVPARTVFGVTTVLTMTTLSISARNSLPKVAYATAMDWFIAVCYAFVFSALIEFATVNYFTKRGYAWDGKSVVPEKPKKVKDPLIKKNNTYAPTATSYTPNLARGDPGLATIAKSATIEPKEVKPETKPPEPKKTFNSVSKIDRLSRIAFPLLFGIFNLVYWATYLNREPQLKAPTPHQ
T1 sequence (P47870 25-512 limits assumed): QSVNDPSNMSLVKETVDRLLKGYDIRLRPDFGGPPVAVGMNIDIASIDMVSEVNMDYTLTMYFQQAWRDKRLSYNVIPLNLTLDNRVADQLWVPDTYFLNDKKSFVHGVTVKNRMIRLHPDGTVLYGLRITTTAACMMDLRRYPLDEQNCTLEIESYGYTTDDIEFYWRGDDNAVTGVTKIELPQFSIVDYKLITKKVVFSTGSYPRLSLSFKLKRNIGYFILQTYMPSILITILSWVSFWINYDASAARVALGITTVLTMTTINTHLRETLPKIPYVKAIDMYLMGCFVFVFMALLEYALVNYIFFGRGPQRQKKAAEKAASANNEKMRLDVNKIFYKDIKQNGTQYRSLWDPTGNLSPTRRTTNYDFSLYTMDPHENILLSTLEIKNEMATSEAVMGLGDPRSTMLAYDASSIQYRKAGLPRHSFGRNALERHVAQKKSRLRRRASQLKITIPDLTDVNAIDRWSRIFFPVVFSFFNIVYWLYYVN
T1 sequence (P18507 40-475): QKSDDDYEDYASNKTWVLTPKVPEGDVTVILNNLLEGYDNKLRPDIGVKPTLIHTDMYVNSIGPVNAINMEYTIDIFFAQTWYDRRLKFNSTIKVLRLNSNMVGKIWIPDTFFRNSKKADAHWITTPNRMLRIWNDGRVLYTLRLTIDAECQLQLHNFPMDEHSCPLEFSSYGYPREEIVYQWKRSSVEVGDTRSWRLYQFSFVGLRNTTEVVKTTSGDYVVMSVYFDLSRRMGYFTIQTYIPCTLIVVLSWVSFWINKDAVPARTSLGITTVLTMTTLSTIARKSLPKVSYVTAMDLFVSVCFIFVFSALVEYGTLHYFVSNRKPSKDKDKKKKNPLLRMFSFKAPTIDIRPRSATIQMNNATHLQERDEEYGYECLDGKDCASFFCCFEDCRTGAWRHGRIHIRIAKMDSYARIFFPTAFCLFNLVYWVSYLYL
Method: Cellular electrophysiology was used to measure the pharmacological properties of ALLO, ganaxolone and SGE-516 in heterologous cell systems. Compounds were tested for their ability to affect GABA mediated currents at a submaximal agonist dose (GABA EC20=2 μM).
LTK cells were stably transfected with the α1β2γ2 subunits of the GABA receptor and CHO cells are transiently transfected with the α4β3γ subunits via the Lipofecatamine method. Cells were passaged at a confluence of about 50-80% and then seeded onto 35 mm sterile culture dishes containing 2 ml culture complete medium without antibiotics or antimycotics. Cells were cultivated at a density that enabled the recording of single cells without visible connections to other cells.
Whole-cell currents were measured with HEKA EPC-10 amplifiers using PatchMaster software. Bath solution for all experiments contained (in mM): NaCl 137, KCl 4, CaCl2 1.8, MgCl2 1, HEPES 10, D-Glucose 10, pH 7.4 with NaOH. Intracellular (pipette) solution contained (in mM): KCl 130, MgCl2 1, Mg-ATP 5, HEPES 10, EGTA 5, pH 7.2 with KOH. During experiments, cells and solutions were maintained at room temperature (19° C.-30° C.). For manual patchclamp recordings, cell culture dishes were placed on the dish holder of the microscope and continuously perfused (1 ml/min) with bath solution. After formation of a Gigaohm seal between the patch electrode and the cell (pipette resistance range: 2.5 MΩ-6.0MΩ; seal resistance range: >1 GΩ) the cell membrane across the pipette tip was ruptured to assure electrical access to the cell interior (whole-cell patch configuration).
Cells were voltage-clamped at a holding potential of −80 mV. GABAA receptors were activated by 2 μM GABA and compounds were sequentially applied at increasing concentrations for 30 s prior to a 2 s application of GABA. GABA and compounds were applied to cells via the Dynaflow perfusion system (Cellectricon, Sweden). Test compounds were dissolved in DMSO to form 10 mM stock solution and serially diluted to 0.01, 0.1, 1, and 10 μM in bath solution. […] All concentrations of test compound were tested on each cell. The relative percentage potentiation was defined as the peak amplitude in response to GABA EC20 in the presence of test compound divided by the peak amplitude in response to GABA EC20 alone, multiplied by 100.
ALLO and ganaxolone are known PAMs of both synaptic and extrasynaptic GABAAR-mediated currents. […] The α1β2γ2 or α4β3δ subunit combinations were chosen as representatives of typical synaptic and extrasynaptic GABAA receptors respectively.

## CC(=O)[C@H]1CC[C@H]2[C@@H]3CC[C@H]4C[C@H](O)CC[C@]4(C)[C@H]3CC[C@]12C [ALLO, Allopregnanolone]
[1]
  modulation of GABA receptor trafficking: modulated
[2]
  tonic current during acute exposure: 58.3±13.0 pA
[3]; potentiation of current at GABA EC20 (2 μM), n = 3
  pEC50 ± S.E.M., α1β2γ2: 6.9 ± 0.2

## CC(=O)[C@H]1CC[C@H]2[C@@H]3CC[C@H]4C[C@](C)(O)CC[C@]4(C)[C@H]3CC[C@]12C [Ganaxolone]
[1]
  modulation of GABA receptor trafficking: did not modulate
[2]
  tonic current during acute exposure: 78.8±23.2 pA
[3]
  EC50: 251 nM

## C[C@@]1(O)CC[C@@]2(C)[C@H](CC[C@@H]3[C@@H]2CC[C@]2(C)[C@@H](C(=O)Cn4nccn4)CC[C@@H]32)C1 [SGE-516]
[1]
  modulation of GABA receptor trafficking: modulated
[2]
  tonic current during acute exposure: 49.2±8.9 pA
[3]; potentiation of current at GABA EC20 (2 μM), n = 3, read-out: EC50, α1β2γ2
  EC50: 61 nM
[3]; relative percentage potentiation of GABA EC20 current, read-out: Emax ± S.E.M., α1β2γ2
  Emax: 219%
